Source: patent US12630523B2, “Isoquinoline derivatives for use as antiviral and antitumour agents” (priority 2021, dated 2026)
Where two headings read alike, the source gives them in different places.

How the values were obtained:
[1] = tested on: CaSki (ATCC CRM-CRL-1550); experiment: Monolayer assay using Sulphorhodamine B (SRB) staining, CaSki; type: cell-based; details: Homo sapiens, Ca-Ski
Summary of the method: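 After 24 h recovery, 10.000–30.000 cells/well treated 72 h with compound at 9 concentrations. Cells TCA-fixed (10% final) 1 h at 4 °C, SRB-stained, optical density read at 540 nm; EC50 for growth inhibition from non-linear regression of log concentration versus % T/C.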

[2] = tested on: SARS-CoV-2 isolate BetaCov/Belgium/GHB-03021/2020; experiment: microbe, parasite or virus in culture; type: cell-based; details: for inhibition at 1.25 µM: Severe acute respiratory syndrome coronavirus 2, 1.25 μM (non-toxic compound concentration), n4; for SARS-CoV-2 antiviral activity, mono treatment or combination (FIG. 10): Vero E6 cells, VSP035 10-0.625 μM
[3] = tested on: cell signaling molecules (4E-BP1, p70 S6 kinase, Akt, PTPN14, p53, PD-L1); experiment: Western blot of cell signaling molecules in CaSki cells
HPV16 E7 protein = target: T1, HPV16 E7 protein (Human papillomavirus type 16, UniProt P03129); type: cell-based; details: CaSki cells; for % Dad: adjusted degradation, CHX steady state set to 100% degradation
T1 construct: endogenous in cells; host or cells: CaSki cells (HPV16-positive cervical carcinoma)
T1 sequence (P03129 whole entry): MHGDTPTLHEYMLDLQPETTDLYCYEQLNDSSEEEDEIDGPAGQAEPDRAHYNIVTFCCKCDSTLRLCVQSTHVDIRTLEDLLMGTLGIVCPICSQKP
Method: For intracellular antibody labeling, 0.5×10^6 cells are washed once with 1 ml ice-cold PBS. Cells are centrifuged at 350×g for 5 minutes at 4° C. and then fixed in 1% paraformaldehyde (1 ml/10^6 cells) for 20 minutes at 4° C. Cells are washed with 1 ml ice-cold PBS and centrifuged at 350×g for 5 minutes at 4° C. To permeabilize cells, 100% ice-cold methanol (1 ml/10^6 cells) is added to the cells and incubated for 20 minutes at 4° C. followed by centrifugation at 350×g for 5 minutes at 4° C. Cells are washed with 1 ml ice-cold PBS, centrifuged at 350×g for 5 minutes at 4° C. and resuspended in 0.1% saponin+2% FBS in PBS (ice-cold). Cells are left for 20-30 minutes at room temperature to reduce the background signal and then centrifuged at 350×g for 5 minutes at 4° C. The primary antibody (mAb_HPV16E7-1 (VS13004); concentration 1 μg/μl) is diluted in 0.1% saponin+2% FBS (dilution 0.25 μg/50 μl of incubation buffer per 1×10^6 cells (5 ng/μl)). Cells are incubated with primary antibody for 30 minutes at room temperature, washed with 0.1% saponin+2% FBS and centrifuged at 350×g for 5 minutes at 4° C. The secondary antibody (FITC conjugated goat anti-mouse IgG1-IgM, BD, cat. #555988) is diluted in 0.1% saponin+2% FBS (dilution 1:50). Cells are incubated with secondary antibody for 30 minutes at room temperature, washed once with 0.1% saponin+2% FBS, once with PBS and centrifuged at 350×g for 5 minutes at 4° C.
Cells are resuspended in 700 μl PBS prior to CF analysis with a Beckman Coulter FC 500 MPL, (excitation laser 488 nm). Data analysis is done using the Beckman Coulter software packages MXP for acquisition and CXP for data analysis which includes MFI calculation. Detection of HPV-E7 protein expression is based on morphology back-gating of FL1 histogram (logarithmic scale) with gating for dot plot FS (Forward Scatter) log/SS (Sideward Scatter) log and gating for histograms SS log.
In order to define the level of E7 protein expression and to study the extent of E7 protein steady state level reduction in E7 expressing cells in the presence of various compounds, FC analysis is implemented using the intracellular antibody labeling procedure for monoclonal antibodies to HPV E7. E7 signal intensities are analyzed from the obtained FL1 histograms at logarithmic scale. The FL1 single histogram graph represents the variation in the mean fluorescence intensity (MFI) channel for cells treated with selected compounds compared to cells not incubated with primary antibodies but incubated with secondary, which allows to test for auto-fluorescence, and non-compound treated cells as controls. Non-primary antibody-stained cells are used to set the acquisition parameters to zero. Decrease of the mean fluorescence intensity channel corresponds to a decrease in the expression of HPV16 E7 protein. Degradation of E7 in cells is calculated as percent (%) reduction in MFI(x-Me) using the following formulas: % Drel=(T−C)/T*100; i) relative degradation: % Dad=(T−C)/(T−CHX)*100; ii) adjusted degradation: • Drel=relative degradation, • Dad=adjusted degradation assuming CHX % Drel=100; • T=MFI of non-treated cells; • C=MFI of compound treated cells; • CH=MFI of cycloheximide (CHX) treated cells;
For comparison within one experiment i) the % relative degradation (Drel) is sufficient, whereas for comparison between two or more experiments ii) the adjusted degradation (Dad) is used and CHX steady state is set to a 100% degradation parameter.
1×10^6 freshly seeded CaSki cells (ATCC CRL-7915), are grown in 10 cm diameter cell culture dishes in RPMI1640, 10% FCS medium at 37° C. 5% CO2 overnight and then incubated in the presence of 10 μM Cycloheximide (CHX) 10 μM OC246 or with vehicle alone for four hours at 37° C. 5% CO2. Following this E7 protein is assessed by cytofluorimetric analysis using intracellular HPV16 E7 antibody labeling. […]

[4] = tested on: human cervical carcinoma (CaSki) xenograft; experiment: CaSki high risk HPV16 human cervical carcinoma xenograft model; type: in vivo, nude mice; details: for % TGI (Day 44): percentage tumor growth inhibition with respect to controls / Δ% on Day 44 / Δ% Body Weight: OC246/OC974 os 2 mg/kg/day; for % TGI (Day 44): percentage tumor growth inhibition with respect to controls: 4 × week; for % TGI (Day 44): percentage tumor growth inhibition with respect to controls / Tumor Volume Day 44 (mm^3 ± SD): 3 cycles, CDDP i.v. q7d × 3, 6 mg/kg; for Δ% on Day 44 / Δ% Body Weight: CDDP i.v. 6 mg/kg; for Δ% on Day 44: control 100; for Tumor Volume Day 44 (mm^3 ± SD): OC246/OC974 os daily 4 × week, 2 mg/kg/day, control 1099 ± 503; for Δ% Body Weight: between first day of treatment (day 20) and Day 44, control +4.9
Method: The aim of this study was to assess the in vivo efficacy of OC246 and OC974 on a human cervical carcinoma (CaSki) xenograft model in nude mice. OC246 and OC974 were administered oral once daily for four times with three days off, for three cycles at 2 mg/kg/dose. Cisplatin (CDDP) was used as a reference compound with three weekly intravenous (q7dx3) administrations of 6 mg/kg.

Compound | EC50 ([1]; read-out: EC50 mean [nM]) [nM] | inhibition at 1.25 µM [2] [%] | SARS-CoV-2 antiviral activity, mono treatment or combination (FIG. 10) [2] | SARS-CoV-2 antiviral activity, mono treatment or combination (FIG. 10) ([2]; listed as VS035) | PDL-1 regulation ([3]; CaSki, 4 and 8 hours, dose dependent) | p(S473)Akt, Sting and Irf-3 levels ([3]; CaSki, 10 μm VSP035 time course) | Ptpn14 and p53 levels ([3]; CaSki, 10 μm, 24 h time point) | Phosphorylation of 4E-BP1 on Ser65 and the p70S6 kinase on Thr389 ([3]; CaSki, 6 h, order 10 μM VSP035, Torin 1, Torin 2, rapamycin, 5 μM VSP035, CGP 57380) | 4E-BP1 phosphorylation state ([3]; CaSki, 6 h treatment) | % Drel (relative degradation) (HPV16 E7 protein; 10 μM, four hours) [%] | % Dab (adjusted degradation) (HPV16 E7 protein; 10 μM, four hours, CHX set to 100) [%] | MFI (mean fluorescence intensity) of E7 signal (HPV16 E7 protein; 10 μM, four hours, vehicle T 8.06) | % Dad (HPV16 E7 protein) [%] | % TGI (Day 44): percentage tumor growth inhibition with respect to controls [4] [%] | Δ% on Day 44 [4] [%] | Tumor Volume Day 44 (mm^3 ± SD) [4] [mm^3] | Δ% Body Weight [4] | EC50 ([1]; 72 h) [nM] | signaling of phosphor-Akt S473 ([3]; 10 μM, 4 hours, CaSki and U2OS cells)
CN1CCC(CN2C(=O)c3ccccc3[C@H](C(=O)Nc3cccc(N4CCN(C)CC4)c3)[C@H]2c2ccc(C(F)(F)F)cc2)CC1 [VSP035, (3S,4S)-N-[3-(4-methylpiperazin-1-yl)phenyl]-2-[(1-methylpiperidin-4-yl)methyl]-1-oxo-3-[4-(trifluoromethyl)phenyl]-1,2,3,4-tetrahydroisoquinoline-4-carboxamide] | 3750 | 72.4 | moderate | Robust antiviral activities | valid pdl-1 destabilizer | do not appear to be influenced | increase in Ptpn14 and p53 | inhibited or strongly reduced | dose dependent hypophosphorylation of 4E-BP1 |  |  |  |  |  |  |  |  |  | 
Cc1ccc(CN2C(=O)c3ccccc3[C@H](C(=O)Nc3cccc(N4CCN(C)CC4)c3)[C@@H]2c2ccc(C(F)(F)F)cc2)cc1 [OC246, N-[3-(4-methylpiperazin-1-yl)phenyl]-2-[(4-methylphenyl)methyl]-1-oxo-3-[4-(trifluoromethyl)phenyl]-1,2,3,4-tetrahydroisoquinoline-4-carboxamide] | 3050 | 45.7 |  |  |  |  |  |  |  | 43.79 | 55.59 | 4.53 | 56 | 66.6 | 27 | 371 ± 153 | +5.5% | 2890 | does not inhibit
CN1CCC(CN2C(=O)c3ccccc3[C@@H](C(=O)Nc3cccc(N4CCN(C)CC4)c3)[C@@H]2c2ccc(C(F)(F)F)cc2)CC1 (racemic) [OC974, (3R,4R)- and (3S,4S)-N-[3-(4-methylpiperazin-1-yl)phenyl]-2-[(1-methylpiperidin-4-yl)methyl]-1-oxo-3-[4-(trifluoromethyl)phenyl]-3,4-dihydroisoquinoline-4-carboxamide] | 1550 | 54.3 |  |  |  |  |  |  |  |  |  |  | 68 | 63.9 | 23 | 307 ± 171 | +1.1% |  | 
